In paper PMC4170737 (Bioorganic & medicinal chemistry letters, 2014):

Assays:
human PMM2 [1] = molecular target: T1, human PMM2 (Homo sapiens, UniProt O15305); test: biochemical
T1 sequence (O15305 1-246): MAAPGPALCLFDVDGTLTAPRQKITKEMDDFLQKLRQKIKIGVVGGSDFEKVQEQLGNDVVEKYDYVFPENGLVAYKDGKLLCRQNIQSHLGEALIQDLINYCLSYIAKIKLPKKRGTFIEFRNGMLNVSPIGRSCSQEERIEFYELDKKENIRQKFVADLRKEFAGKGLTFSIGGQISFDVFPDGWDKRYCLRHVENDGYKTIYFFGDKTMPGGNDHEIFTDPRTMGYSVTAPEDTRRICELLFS

TNAP = molecular target: T2, TNAP (Homo sapiens, UniProt P05186)
T2 sequence (P05186 18-502 limits assumed): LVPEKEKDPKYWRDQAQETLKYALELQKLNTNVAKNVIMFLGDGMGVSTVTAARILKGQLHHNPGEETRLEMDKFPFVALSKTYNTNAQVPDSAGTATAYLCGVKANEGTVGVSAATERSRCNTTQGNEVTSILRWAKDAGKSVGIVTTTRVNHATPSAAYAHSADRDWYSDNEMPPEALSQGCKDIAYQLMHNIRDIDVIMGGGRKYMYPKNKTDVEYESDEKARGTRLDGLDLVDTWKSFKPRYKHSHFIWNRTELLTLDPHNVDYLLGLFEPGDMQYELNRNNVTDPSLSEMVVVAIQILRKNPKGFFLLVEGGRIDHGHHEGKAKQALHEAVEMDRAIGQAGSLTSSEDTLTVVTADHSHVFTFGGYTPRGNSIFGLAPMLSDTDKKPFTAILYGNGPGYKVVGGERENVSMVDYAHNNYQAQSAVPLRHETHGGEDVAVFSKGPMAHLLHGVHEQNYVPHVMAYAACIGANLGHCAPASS

[2] = Hepatic microsome stability, mouse; conditions: for Hepatic Microsome Stability: mouse (first or only value of cell)
human PMM2 [3] = molecular target: T1, human PMM2
[4] = tested on: mevalonate pathway in streptococcus pneumonia; conditions: ref PubChem AID1028; cited from earlier work
[5] = molecular target: T3, human PMI (phosphomannose isomerase) (Homo sapiens, UniProt P34949)
T3 sequence (P34949 1-423): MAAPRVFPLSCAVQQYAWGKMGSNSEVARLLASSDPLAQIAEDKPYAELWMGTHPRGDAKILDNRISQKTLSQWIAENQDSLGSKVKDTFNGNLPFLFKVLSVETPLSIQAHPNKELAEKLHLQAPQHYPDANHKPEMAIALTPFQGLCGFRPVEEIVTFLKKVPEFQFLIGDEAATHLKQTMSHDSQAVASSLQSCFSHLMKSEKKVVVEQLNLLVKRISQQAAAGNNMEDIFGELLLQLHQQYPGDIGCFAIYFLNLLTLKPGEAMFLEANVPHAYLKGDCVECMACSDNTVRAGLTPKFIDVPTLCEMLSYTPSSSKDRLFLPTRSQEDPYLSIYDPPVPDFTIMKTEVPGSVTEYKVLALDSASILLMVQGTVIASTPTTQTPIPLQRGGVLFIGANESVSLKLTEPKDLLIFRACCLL

[6] = Hepatic microsome stability, human; conditions: for Hepatic Microsome Stability: human (first or only value of cell)
[7] = Plasma protein binding, human
[8] = Plasma protein binding, mouse
[9] = 1× PBS, pH 7.4 alone, human column (second value of cell)
[10] = human plasma: 1× PBS, pH 7.4, 1:1 (first value of cell)
[11] = 1× PBS, pH 7.4 alone, mouse column (second value of cell)
[12] = mouse plasma: 1× PBS, pH 7.4, 1:1 (first value of cell)

| SMILES | IC50 (human PMM2 [1]) [µM] | Inhibitory activity against TNAP (in words) (TNAP) | Plasma Stability (Plasma stability, human; [9]) [% Remaining at 3hrs] | Plasma Stability (Plasma stability, human; [10]) [% Remaining at 3hrs] | Hepatic Microsome Stability [2] [% Remaining at 1hr] | Activity at PMM2 (in words) (human PMM2 [3]) | Activity in screen for inhibitors of the mevalonate pathway (in words) [4] | Plasma Stability (Plasma stability, mouse; [11]) [% Remaining at 3hrs] | Plasma Stability (Plasma stability, mouse; [12]) [% Remaining at 3hrs] | Activity at PMI (in words) [5] | Hepatic Microsome Stability [6] [% Remaining at 1hr] | Plasma Protein Binding ([7]; 1 μM) [% Bound] | Plasma Protein Binding ([8]; 1 μM) [% Bound] | Plasma Protein Binding ([8]; 10 μM) [% Bound] | Hepatic Microsome Stability (NADPH minus) ([2]; mouse, NADPH minus (second value of cell)) [% Remaining at 1hr] | Hepatic Microsome Stability (NADPH minus) ([6]; human, NADPH minus (second value of cell)) [% Remaining at 1hr] | Papp (PAMPA permeability; PAMPA Permeability, donor pH 5.0, acceptor pH 7.4) [×10⁻⁶ cm/s] | Papp (PAMPA permeability; PAMPA Permeability, donor pH 6.2, acceptor pH 7.4) [×10⁻⁶ cm/s] | Papp (PAMPA permeability; pH 7.4, PAMPA Permeability, donor pH 7.4, acceptor pH 7.4) [×10⁻⁶ cm/s] | Plasma Protein Binding ([7]; 10 μM) |
| --- | --- | --- | --- | --- | --- | --- | --- | --- | --- | --- | --- | --- | --- | --- | --- | --- | --- | --- | --- | --- |
| CN(C)C(=O)c1cccc(-n2sc3ccccc3c2=O)c1 [Compound 2q] | > 50 | devoid of any significant inhibitory activity | 60.0 | 18.9 | 56.6 | no activity | weak activity | 56.9 | 76.2 | no activity | 45.7 | 41.3 | 48.0 | 46.7 |  |  |  |  |  |  |
| O=c1c2ccccc2sn1-c1ccc(F)c(Cl)c1 [Compound 2m] |  |  |  |  |  | inactive |  |  |  | inactive |  |  |  |  |  |  |  |  |  |  |
| COC(=O)c1cccc(-n2sc3ccccc3c2=O)c1 [Compound 2o] |  |  | 49.3 | 15.4 | 45.9 |  |  | 55.2 | 59.6 |  | 72.4 | 41.2 | 48.0 | 37.6 | 44.6 | 31.5 | 1290 | 1230 | 1300 | 57.3 % Bound |
| CCN(CC)S(=O)(=O)c1cccc(-n2sc3ccccc3c2=O)c1 [Compound 2t] |  |  |  |  |  | devoid of activity |  |  |  | devoid of activity |  |  |  |  |  |  |  |  |  |  |
| O=C(O)c1cccc(-n2sc3ccccc3c2=O)c1 [Compound 2n] |  |  | 55.5 | 50.2 | 100 | no activity |  | 71.2 | 100 |  | 100 |  | 18.8 | 30.1 |  |  |  |  |  | n.d. / 59.4 % Bound |
| CN(C)S(=O)(=O)c1cccc(-n2sc3ccccc3c2=O)c1 [Compound 2s] |  |  | 32.3 | 11.4 | 100 |  |  | 40.0 | 65.3 |  | 72.4 |  | 35.6 | 34.1 |  |  |  |  |  | n.d. / 56.5 % Bound |
| CCOC(=O)c1ccc(-n2sc3ccccc3c2=O)cc1 [Compound 2p] |  |  |  |  |  | essentially devoid of activity |  |  |  | essentially devoid of activity |  |  |  |  |  |  |  |  |  |  |
